# Reference: PubChem BioAssay (NCI)
#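 How tested: cells in 96-well plates exposed to compound for 48 hours at five concentrations. GI50: concentration for 50% inhibition of growth. TGI: total growth inhibition.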
# Experiments:
# Assay in all cases: NCI anticancer screen, dose series, 48 h
# PC-3 prostate = system: PC-3 prostate
# SF-539 CNS = system: SF-539 CNS
# NCI/ADR-RES ovarian = system: NCI/ADR-RES ovarian
# COLO 205 colon = system: COLO 205 colon
# OVCAR-4 ovarian = system: OVCAR-4 ovarian
# BT-549 breast = system: BT-549 breast
# T-47D breast = system: T-47D breast
# NCI-H460 lung = system: NCI-H460 lung
# MDA-MB-231 breast = system: MDA-MB-231 breast
# OVCAR-8 ovarian = system: OVCAR-8 ovarian
# NCI-H23 lung = system: NCI-H23 lung
# ACHN renal = system: ACHN renal
# IGROV1 ovarian = system: IGROV1 ovarian
# SNB-75 CNS = system: SNB-75 CNS
# OVCAR-5 ovarian = system: OVCAR-5 ovarian
# K-562 leukemia = system: K-562 leukemia
# UO-31 renal = system: UO-31 renal
# HCT-116 colon = system: HCT-116 colon
# HT29 colon = system: HT29 colon
# RXF 393 renal = system: RXF 393 renal
# M14 melanoma = system: M14 melanoma
# UACC-62 melanoma = system: UACC-62 melanoma
# DU-145 prostate = system: DU-145 prostate
# HL-60(TB) leukemia = system: HL-60(TB) leukemia
# MCF7 breast = system: MCF7 breast
# SF-268 CNS = system: SF-268 CNS
# SK-OV-3 ovarian = system: SK-OV-3 ovarian
# HOP-92 NSCLC = system: HOP-92 NSCLC
# NCI-H522 lung = system: NCI-H522 lung
# SF-295 CNS = system: SF-295 CNS
# NCI-H226 lung = system: NCI-H226 lung
# LOX IMVI melanoma = system: LOX IMVI melanoma
# HS 578T breast = system: HS 578T breast
# SK-MEL-28 melanoma = system: SK-MEL-28 melanoma
# MALME-3M melanoma = system: MALME-3M melanoma
# HCT-15 colon = system: HCT-15 colon
# SW-620 colon = system: SW-620 colon
# SNB-19 CNS = system: SNB-19 CNS
# CAKI-1 renal = system: CAKI-1 renal
# SK-MEL-2 melanoma = system: SK-MEL-2 melanoma
# SN12C renal = system: SN12C renal
# MOLT-4 leukemia = system: MOLT-4 leukemia
# RPMI-8226 leukemia = system: RPMI-8226 leukemia
# 786-0 renal = system: 786-0 renal
# CCRF-CEM leukemia = system: CCRF-CEM leukemia
# HCC-2998 colon = system: HCC-2998 colon
# A549 NSCLC = system: A549 NSCLC
# OVCAR-3 ovarian = system: OVCAR-3 ovarian
# EKVX NSCLC = system: EKVX NSCLC
# SK-MEL-5 melanoma = system: SK-MEL-5 melanoma
# U251 CNS = system: U251 CNS
# TK-10 renal = system: TK-10 renal
# A498 renal = system: A498 renal
# MDA-MB-435 = system: MDA-MB-435
# UACC-257 melanoma = system: UACC-257 melanoma
# KM12 colon = system: KM12 colon
# HOP-62 NSCLC = system: HOP-62 NSCLC
compound,measurement,setting,value
N#Cc1cc(-c2ccnc(Nc3ccc(NC(=O)CCl)cc3)n2)ccc1N1CCCC1,GI50,PC-3 prostate,2.68 µM
same,TGI,PC-3 prostate,13.9 µM
same,GI50,SF-539 CNS,2.81 µM
same,TGI,SF-539 CNS,5.9 µM
same,GI50,NCI/ADR-RES ovarian,1.14 µM
same,TGI,NCI/ADR-RES ovarian,> 25 µM
same,GI50,COLO 205 colon,2.87 µM
same,TGI,COLO 205 colon,7.17 µM
same,GI50,OVCAR-4 ovarian,3.49 µM
same,TGI,OVCAR-4 ovarian,10.5 µM
same,GI50,BT-549 breast,0.708 µM
same,TGI,BT-549 breast,2.25 µM
same,GI50,T-47D breast,5.1 µM
same,TGI,T-47D breast,11 µM
same,GI50,NCI-H460 lung,2.04 µM
same,TGI,NCI-H460 lung,6.4 µM
same,GI50,MDA-MB-231 breast,2.82 µM
same,TGI,MDA-MB-231 breast,10.1 µM
same,GI50,OVCAR-8 ovarian,1.15 µM
same,TGI,OVCAR-8 ovarian,> 25 µM
same,GI50,NCI-H23 lung,0.878 µM
same,TGI,NCI-H23 lung,3.72 µM
same,GI50,ACHN renal,1.86 µM
same,TGI,ACHN renal,6.6 µM
same,GI50,IGROV1 ovarian,0.514 µM
same,TGI,IGROV1 ovarian,1.18 µM
same,GI50,SNB-75 CNS,1.12 µM
same,TGI,SNB-75 CNS,7.72 µM
same,GI50,OVCAR-5 ovarian,5.4 µM
same,TGI,OVCAR-5 ovarian,12.7 µM
same,GI50,K-562 leukemia,0.711 µM
same,TGI,K-562 leukemia,> 25 µM
same,GI50,UO-31 renal,1.07 µM
same,TGI,UO-31 renal,4.29 µM
same,GI50,HCT-116 colon,0.684 µM
same,TGI,HCT-116 colon,1.88 µM
same,GI50,HT29 colon,0.68 µM
same,TGI,HT29 colon,4.8 µM
same,GI50,RXF 393 renal,0.779 µM
same,TGI,RXF 393 renal,2.69 µM
same,GI50,M14 melanoma,0.646 µM
same,TGI,M14 melanoma,1.49 µM
same,GI50,UACC-62 melanoma,2.22 µM
same,TGI,UACC-62 melanoma,5.99 µM
same,GI50,DU-145 prostate,4.17 µM
same,TGI,DU-145 prostate,16.5 µM
same,GI50,HL-60(TB) leukemia,5.1 µM
same,TGI,HL-60(TB) leukemia,> 25 µM
same,GI50,MCF7 breast,0.809 µM
same,TGI,MCF7 breast,3.64 µM
same,GI50,SF-268 CNS,1.38 µM
same,TGI,SF-268 CNS,9.4 µM
same,GI50,SK-OV-3 ovarian,2.9 µM
same,TGI,SK-OV-3 ovarian,6.97 µM
same,GI50,HOP-92 NSCLC,4.22 µM
same,TGI,HOP-92 NSCLC,> 25 µM
same,GI50,NCI-H522 lung,0.378 µM
same,TGI,NCI-H522 lung,0.831 µM
same,GI50,SF-295 CNS,5.11 µM
same,TGI,SF-295 CNS,13.9 µM
same,GI50,NCI-H226 lung,0.723 µM
same,TGI,NCI-H226 lung,1.66 µM
same,GI50,LOX IMVI melanoma,0.45 µM
same,TGI,LOX IMVI melanoma,0.865 µM
same,GI50,HS 578T breast,2.22 µM
same,TGI,HS 578T breast,> 25 µM
same,GI50,SK-MEL-28 melanoma,4.28 µM
same,TGI,SK-MEL-28 melanoma,8.54 µM
same,GI50,MALME-3M melanoma,1.47 µM
same,TGI,MALME-3M melanoma,6.05 µM
same,GI50,HCT-15 colon,0.734 µM
same,TGI,HCT-15 colon,3 µM
same,GI50,SW-620 colon,0.815 µM
same,TGI,SW-620 colon,2.63 µM
same,GI50,SNB-19 CNS,4.87 µM
same,TGI,SNB-19 CNS,16.7 µM
same,GI50,CAKI-1 renal,0.875 µM
same,TGI,CAKI-1 renal,6.77 µM
same,GI50,SK-MEL-2 melanoma,0.933 µM
same,TGI,SK-MEL-2 melanoma,2.92 µM
same,GI50,SN12C renal,0.818 µM
same,TGI,SN12C renal,4.59 µM
same,GI50,MOLT-4 leukemia,2.42 µM
same,TGI,MOLT-4 leukemia,> 25 µM
same,GI50,RPMI-8226 leukemia,1.7 µM
same,TGI,RPMI-8226 leukemia,22.7 µM
same,GI50,786-0 renal,0.649 µM
same,TGI,786-0 renal,6.14 µM
same,GI50,CCRF-CEM leukemia,0.738 µM
same,TGI,CCRF-CEM leukemia,> 25 µM
same,GI50,HCC-2998 colon,4.96 µM
same,TGI,HCC-2998 colon,9.14 µM
same,GI50,A549 NSCLC,5.27 µM
same,TGI,A549 NSCLC,14.7 µM
same,GI50,OVCAR-3 ovarian,2.9 µM
same,TGI,OVCAR-3 ovarian,7.59 µM
same,GI50,EKVX NSCLC,22.6 µM
same,TGI,EKVX NSCLC,> 25 µM
same,GI50,SK-MEL-5 melanoma,1.08 µM
same,TGI,SK-MEL-5 melanoma,3.72 µM
same,GI50,U251 CNS,3.35 µM
same,TGI,U251 CNS,8.09 µM
same,GI50,TK-10 renal,0.894 µM
same,TGI,TK-10 renal,3.48 µM
same,GI50,A498 renal,3.88 µM
same,TGI,A498 renal,9.92 µM
same,GI50,MDA-MB-435,0.716 µM
same,TGI,MDA-MB-435,2.7 µM
same,GI50,UACC-257 melanoma,5.04 µM
same,TGI,UACC-257 melanoma,11.6 µM
same,GI50,KM12 colon,3.84 µM
same,TGI,KM12 colon,10.2 µM
same,GI50,HOP-62 NSCLC,4.64 µM
same,TGI,HOP-62 NSCLC,18.8 µM
